In article PMC4259467, “Molecular Cloning, Characterization and Positively Selected Sites of the Glutathione S-Transferase Family from Locusta migratoria” (PLoS ONE, 2014) one finds Km data, which are given here for 1 compound.

What all share (test): spectrophotometric GST assay, steady state
Common to all, as to assay type: biochemical
Settings in all cases: co-substrate GSH; pH and temperature not given; read-out: K m ^CDNB

One assay has as its target T1, LmGSTS10 (Locusta migratoria, UniProt V9Q3X5).
T1 construct: gene GSTs10; full-length ORF in pET28a, E. coli BL21(DE3), His-tag Ni-NTA purified
T1 sequence (V9Q3X5 1-204): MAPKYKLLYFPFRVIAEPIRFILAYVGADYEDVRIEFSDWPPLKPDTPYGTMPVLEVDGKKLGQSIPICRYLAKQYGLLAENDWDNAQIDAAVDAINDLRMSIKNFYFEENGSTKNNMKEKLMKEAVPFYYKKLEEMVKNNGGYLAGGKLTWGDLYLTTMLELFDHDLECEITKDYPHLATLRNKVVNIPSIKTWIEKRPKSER
The text has this:
spectrophotometric GST assay, steady state on LmGSTS10

The target of another assay is T2, LmGSTS8 (Locusta migratoria, UniProt V9Q487).
T2 construct: gene GSTs8; full-length ORF in pET28a, E. coli BL21(DE3), His-tag Ni-NTA purified
T2 sequence (V9Q487 1-204): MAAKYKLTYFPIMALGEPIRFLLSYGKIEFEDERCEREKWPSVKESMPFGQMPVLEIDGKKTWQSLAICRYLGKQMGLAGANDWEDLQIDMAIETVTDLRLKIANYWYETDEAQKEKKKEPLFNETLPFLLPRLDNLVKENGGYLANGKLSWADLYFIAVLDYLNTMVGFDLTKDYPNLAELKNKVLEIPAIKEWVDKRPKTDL
The text has this: spectrophotometric GST assay, steady state on LmGSTS8

Another assay concerns the target T3, LmGSTE5 (Locusta migratoria, UniProt V9Q3X9).
T3 construct: gene GSTe5; full-length ORF in pET28a, E. coli BL21(DE3), His-tag Ni-NTA purified
T3 sequence (V9Q3X9 1-221): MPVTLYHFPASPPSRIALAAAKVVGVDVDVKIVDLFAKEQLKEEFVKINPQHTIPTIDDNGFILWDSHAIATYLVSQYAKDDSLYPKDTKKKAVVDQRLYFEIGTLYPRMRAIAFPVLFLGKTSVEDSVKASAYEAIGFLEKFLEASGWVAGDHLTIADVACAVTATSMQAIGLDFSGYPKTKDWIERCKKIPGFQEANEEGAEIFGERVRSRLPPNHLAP
The text has this:
spectrophotometric GST assay, steady state on LmGSTE5

Molecules are shown by their SMILES.

Consider `O=[N+]([O-])c1ccc(Cl)c([N+](=O)[O-])c1` [CDNB], for which the Km on LmGSTS10 was 311 ± 18 µM; at LmGSTS8, 100 ± 6 µM; at LmGSTE5, 26 ± 2 µM.
